What was measured:
[1] = system: healthy volunteer peripheral blood neutrophils, monocytes and platelets; assay: Healthy volunteer whole blood incubated with RvDn-3 DPA then PAF, flow cytometry of activation markers; format: cell-based, human; conditions: 0.1, 1, 10 nM, 15 min then PAF 30 min
Procedure: Blood was collected from healthy volunteers and incubated with RvD2n-3 DPA, RvD5n-3 DPA (0.1 nM, 1 nM or 10 nM) or vehicle (PBS) for 15 min (37° C.) then with PAF (100 ng/ml; 30 min; 37° C.). Cell activation and leukocyte-platelet aggregates were assessed using flow cytometry. (A,B) Representative histograms depicting neutrophil (A) CD11b and (B) CD62P expression. (C,D) Cumulative neutrophil ([…]) CD11b and (D) CD62P expression. (E,F) Monocyte (E) CD11b and (F) CD62P expression. Results are mean of n=5 per time point and expressed as percentage change from PAF incubated cells. *p<0.05 compared to PAF using one-sample t test, followed by Sidak correction of p values.
(§1) Blood was collected from healthy volunteers and incubated with RvD2n-3 DPA, RvD5n-3 DPA (0.1 nM, 1 nM or 10 nM) or vehicle (PBS) for 15 min (37° C.) then with PAF (100 ng/ml; 30 min; 37° C.). Cell activation and leukocyte-platelet aggregates were assessed using flow cytometry. (A,B) Images depicting platelet monocyte (A) and (B) platelet-neutrophil aggregates. Results are representative of n=3 distinct experiments. (C,D) Cumulative neutrophil (C) CD11b and (D) CD62P expression. (E,F) Monocyte (E) CD11b and (F) CD62P expression. Results are mean of n=5 per condition and expressed as percentage change from PAF incubated cells. *p<0.05 compared to PAF using Wilcoxon Signed Rank Test. (G) Platelet rich plasma was incubated with vehicle (PBS) or RvD5n-3 DPA 0.1-10 nM (15 min; 37° C.) and PAF (100 nM; 30 min; 37° C.). Adhesion molecule expression evaluated using flow cytometry. Results are mean±s.e.m. n=5 healthy volunteers. * p, 0.05 compared to Vehicle group using Friedman's test followed by Dunn's multiple comparisons test.
After stimulation, samples were washed twice with PBS for 12 min at 800×g. Samples were stained for flow cytometry as described below.
Whole blood was incubated with lineage-specific markers for 45 min (4° C., in DPBS containing 0.02% BSA). The following anti-human antibodies were used: VioBlue-anti-CD41, PE-Cy5-anti-CD62P, Brilliant Violet 711-anti-CD11b, APC-Cy7-anti-CD16, Alexa Fluor 647-anti-CD14. After staining, red blood cells were lysed using Whole Blood Lysing Reagent Kit, according to the manufacturer's instructions. Data was collected using a flow cytometer and analysis was conducted using appropriate software.

[2] = system: platelet rich plasma; assay: PRP incubations with RvD5n-3 DPA then PAF, platelet adhesion molecule expression by flow cytometry; format: cell-based, human; conditions: 0.1-10 nM, 15 min, then PAF 100 nM 30 min
Procedure: as §1, with “FIG. 21: RvD2n-3 DPA” for “Blood was collected from healthy volunteers”, “and” for “and incubated with RvD2n-3 DPA,”, “reduce monocyte, neutrophil and platelet activation in healthy volunteer peripheral blood. […]” for “(0.1 nM, 1 nM or 10 nM) or vehicle (PBS) for 15 min (37° C.) then with PAF (100 ng/ml; 30 min; 37° C.).”
Peripheral blood from healthy volunteers was collected in acidified-citrate-dextrose. Blood was centrifuged at 500×g for 20 min. PRP was collected and cells incubated with RvD5n-3 DPA or vehicle (0.01% EtOH+PBS) for 15 min at 37° C. Cells were then incubated with PAF (100 nM) or Vehicle (0.01% EtOH) for 30 min at 37° C. Cells were then washed with PBS and cellular activation was assessed using flow cytometry as detailed below.
In select experiments platelet adhesion molecule expression was assessed. Here platelets were incubated with fluorescently labelled mouse anti-human VioBlue-anti-CD41, PE-Cy5-anti-CD62P, PerCP/Cy5.5-anti-CD63 and FITC-ant-CD42b for 30 min at 4° C. Cells were then washed and fluorescence, staining evaluated using LSRFortessa cell analyser (BD Biosciences) and analysed using FlowJo software (Tree Star Inc., V10).

[3] = system: Apo E^−/− mice; assay: Apo E−/− mice on western diet given RvD5n-3 DPA: blood leukocyte and platelet activation by flow cytometry; format: in vivo; conditions: 100 ng/mouse i.v., alternate days, 2 weeks; vs vehicle
Procedure: (§2) Mice (male and female) were fed a western diet for 6 weeks from 4 weeks of age and kept of a 12 h light dark cycle. At 8 weeks of age, mice were given RvD5n-3 DPA (100 ng/mouse; i.v.) or vehicle on alternate days for a 2-week period. Mice were culled, aortic arches were collected and stained using oil-red O as in Khambata R S et al. Anti-inflammatory actions of inorganic nitrate stabilize the atherosclerotic plaque. Proc Natt Acad Sci USA. 2017; 114(4):E550-E559, the contents of which are incorporated herein by reference. Staining intensity was determined using image processing software and expressed as relative units per mm^2. The descending aorta was collected, placed in ice-cold methanol and lipid mediators identified and quantified as described above.
In separate experiments blood was collected from Apo E^−/− mice using heparin-lined syringes via cardiac puncture. Cells were incubated with Fc-blocking IgG and anti-mouse CD11b-PE-Texas Red, CD62P-Brilliant Violet650™, CD115-Brilliant Violet 711™, and CD41-Brilliant Violet 510™ (Biolegend). for 45 minutes on ice. Red blood cells were lysed and fixed using Whole Blood Lysing Reagent Kit. Staining was then evaluated using a flow cytometer and analysis was conducted using appropriate software.

[4] = system: Apo E^−/− mice; assay: Apo E−/− mice given RvD5n-3 DPA: aortic arch Oil red-O staining; format: in vivo; conditions: 100 ng/mouse i.v., alternate days, 2 weeks; vs vehicle
Procedure: as §2

CC/C=C\C[C@H](O)/C=C/C=C\C/C=C\C=C\[C@@H](O)CCCCCC(=O)O [RvD5n-3 DPA, 7,17-trihydroxy-8E,10,13,15E,19Z-docosapentaenoic acid]
leukocyte-platelet aggregates [1]: dose-dependent decreases | monocyte expression of CD11b ([1]; vs PAF alone): dose-dependent decreases | neutrophil CD11b expression ([1]; vs PAF alone): dose-dependent decreases | PAF mediated upregulation of CD41 expression on platelets [2]: dose dependent reduction | PAF mediated upregulation of CD62P expression on platelets [2]: dose dependent reduction | PAF mediated upregulation of CD63 expression on platelets [2]: dose dependent reduction | circulating platelet-monocyte aggregates (CD41 and CD62P expression on CD115 positive cells) [3]: reduced | monocyte activation, CD11b expression [3]: decrease | platelet-neutrophil aggregates and neutrophil activation [3]: significant reduction | reduction in neutrophil CD11b expression [3]: > 60% | aortic lesions (Oil red-O staining) [4]: significant reduction

From patent US12616672B2, “Methods for assessing risk of cardiovascular disease and methods and compounds for use in treating or preventing cardiovascular disease” (Queen Mary University of London, priority 2017, dated 2026)
